Measured values reported in PMC9527238, “Glutamate and GABAA receptor crosstalk mediates homeostatic regulation of neuronal excitation in the mammalian brain” (Signal Transduction and Targeted Therapy, 2022).

Key:
Type in all cases: cell-based
[1] = target: T1, αE137Dβγ GABAAR (Rattus norvegicus, UniProt P62813+P63138, E164D); test: Patch clamp, HEK293, mutant GABAAR; conditions: HEK293, read-out: Glutamate potentiation of GABA currents, % of control, normalized to wild-type α1β2γ2
T1 construct: expressed in transfected cells; host or cells: HEK293
Description: (§1) To further determine the relative significance between the electrostatic and the side chain steric arrangements of these critical amino acid residues in their interaction with glutamate, we next studied the effects of substitution of these amino acids with amino acids of various sizes or charges on the glutamate potentiation. We substituted α1K104, α1E137, α1K155, or β2E181 with […], a non-charged amino acid, in order to perturb the electrostatic accessibility of glutamate to the binding pocket.
(§2) Fig. 4 Property characterization of glutamate binding sites in HEK cells expressing wild-type or mutated αβγ GABAARs. a, b The effects of electrostatic charge and/or size of the pocket-forming residues on glutamate-induced functional modulation.
(§3) HEK293 cells were cultured in DMEM (Invitrogen) supplemented with 10% fetal bovine serum. Cells were grown to 40–60% confluence and transiently transfected using Lipofectamine 2000 (Invitrogen) with 1:0.5–1 plasmid/lipid ratio. Cells were transfected with a pBK-CMV expression vector containing a rat recombinant GABAAR α, β or γ subunits. Co-transections were done with a plasmid ratio of 1:1 αβ and 2:2:1 for αβγ subunit combinations, respectively. pcDNA3.1-GFP was also co-transfected along with GABAAR subunits as a transfected marker in order to facilitate the visualization of the transfected cells during electrophysiological experiments. Cells were re-plated on glass coverslips after 15–20 h transfection and were cultured for an additional 15–24 h before whole-cell patch-clamp recordings.
(§4) The site-directed mutagenesis of α, β or γ subunits were performed by using the QuikChange method (Stratagene). […] Wild-type or mutant subunits were transfected in HEK293 cells and subjected to electrophysiology examinations.
(§5) Whole-cell patch-clamp recordings were performed under voltage-clamp mode using an Axopatch 200B or 1D patch-clamp amplifier (Molecular Devices) on HEK293 cells and cultured neurons. Whole-cell currents were recorded at a holding potential of −60 mV, and signals were filtered at 2 kHz, digitized at 10 kHz (Digidata 1322 A). Recording pipettes (3–5 MΩ) were filled with the intracellular solution that contained (mM): CsCl 140, HEPES 10, Mg-ATP 4, QX-314 5, pH 7.20; osmolarity, 290–295 mOsm. BAPTA (10 mM) was added in the intracellular solution. The coverslips were continuously superfused with the extracellular solution containing (mM): NaCl 140, KCl 5.4, HEPES 10, MgCl2 1.0, CaCl2 1.3, glucose 20, pH 7.4; osmolarity, 305–315 mOsm. […] Dose–response curves were created by fitting data to Hill equation: I = Imax/[1 + (EC50/[A])^n], where I is the current, Imax is the maximum current, [A] is a given concentration of agonist, n is the Hill coefficient. […] All experiments were performed at room temperature.

[2] = target: T2, αE137Wβγ GABAAR (Rattus norvegicus, UniProt P62813+P63138, E164W); test: Patch clamp, HEK293, mutant GABAAR; conditions: HEK293, read-out: Glutamate potentiation of GABA currents, % of control, normalized to wild-type α1β2γ2
T2 construct: expressed in transfected cells; host or cells: HEK293
Description: as §1, §2, §3, §4, §5

[3] = target: T3, αK104Wβγ GABAAR (Rattus norvegicus, UniProt P62813+P63138, K131W); test: Patch clamp, HEK293, mutant GABAAR; conditions: HEK293, read-out: Glutamate potentiation of GABA currents, % of control, normalized to wild-type α1β2γ2
T3 construct: expressed in transfected cells; host or cells: HEK293
Description: as §1, §2, §3, §4, §5

[4] = target: T4, αK155Rβγ GABAAR (Rattus norvegicus, UniProt P62813+P63138, K182R); test: Patch clamp, HEK293, mutant GABAAR; conditions: HEK293, read-out: Glutamate potentiation of GABA currents, % of control, normalized to wild-type α1β2γ2
T4 construct: expressed in transfected cells; host or cells: HEK293
Description: as §1, §2, §3, §4, §5

[5] = target: T5, αK155Wβγ GABAAR (Rattus norvegicus, UniProt P62813+P63138, K182W); test: Patch clamp, HEK293, mutant GABAAR; conditions: HEK293, read-out: Glutamate potentiation of GABA currents, % of control, normalized to wild-type α1β2γ2
T5 construct: expressed in transfected cells; host or cells: HEK293
Description: as §1, §2, §3, §4, §5

[6] = target: T6, αβE181Dγ GABAAR (Rattus norvegicus, UniProt P62813+P63138, E206D); test: Patch clamp, HEK293, mutant GABAAR; conditions: HEK293, read-out: Glutamate potentiation of GABA currents, % of control, normalized to wild-type α1β2γ2
T6 construct: expressed in transfected cells; host or cells: HEK293
Description: as §1, §2, §3, §4, §5

[7] = target: T7, αβE181Wγ GABAAR (Rattus norvegicus, UniProt P62813+P63138, E206W); test: Patch clamp, HEK293, mutant GABAAR; conditions: HEK293, read-out: Glutamate potentiation of GABA currents, % of control, normalized to wild-type α1β2γ2
T7 construct: expressed in transfected cells; host or cells: HEK293
Description: as §1, §2, §3, §4, §5

[8] = target: T8, α1β2γ2E168K GABAAR (Rattus norvegicus, UniProt P18508+P62813+P63138, E206K); test: Patch clamp, HEK293, mutant GABAAR
T8 construct: expressed in transfected cells; host or cells: HEK293
Description: (§6) However, for the GABAAR containing only α and β subunits, there are two α^+/β^− interfaces, with potentially two glutamate-binding pockets (Fig. 5a; Right).
as §3, §4, §5

[9] = target: T9, α1β2γ2R197E GABAAR (Rattus norvegicus, UniProt P18508+P62813+P63138, R235E); test: Patch clamp, HEK293, mutant GABAAR
T9 construct: expressed in transfected cells; host or cells: HEK293
Description: as §6, §3, §4, §5

[10] = target: T10, α2/β2/γ2 GABAARs (Rattus norvegicus, UniProt P23576+P63138); test: Patch clamp, HEK293, α2-containing GABAAR; conditions: wild-type α2/β2/γ2
T10 construct: expressed in transfected cells; host or cells: HEK293

[11] = target: T11, αE137Gβ GABAAR (Rattus norvegicus, UniProt P62813+P63138, E164G); test: Patch clamp, HEK293, mutant α1β2 GABAAR; conditions: HEK293, read-out: Glutamate potentiation of GABA currents, % of control, normalized to wild-type α1β2
T11 construct: expressed in transfected cells; host or cells: HEK293
Description: (§7) The subunits are color-coded individually. The boxed regions are further enlarged in the middle panels, highlighting the predicted glutamate binding pocket in the α+ and β− interface, just below the loop C. […] Relative potentiation was obtained by normalizing potentiation observed in the mutated receptor to that in the respective wild-type receptor.
as §3, §4, §5

[12] = target: T12, αK104Dβ GABAAR (Rattus norvegicus, UniProt P62813+P63138, K131D); test: Patch clamp, HEK293, mutant α1β2 GABAAR; conditions: HEK293, read-out: Glutamate potentiation of GABA currents, % of control, normalized to wild-type α1β2
T12 construct: expressed in transfected cells; host or cells: HEK293
Description: as §7, §3, §4, §5

[13] = target: T13, αK155Dβ GABAAR (Rattus norvegicus, UniProt P62813+P63138, K182D); test: Patch clamp, HEK293, mutant α1β2 GABAAR; conditions: HEK293, read-out: Glutamate potentiation of GABA currents, % of control, normalized to wild-type α1β2
T13 construct: expressed in transfected cells; host or cells: HEK293
Description: as §7, §3, §4, §5

[14] = target: T14, αβE181G GABAAR (Rattus norvegicus, UniProt P62813+P63138, E206G); test: Patch clamp, HEK293, mutant α1β2 GABAAR; conditions: HEK293, read-out: Glutamate potentiation of GABA currents, % of control, normalized to wild-type α1β2
T14 construct: expressed in transfected cells; host or cells: HEK293
Description: as §7, §3, §4, §5

T9 sequence (P62813 28-455): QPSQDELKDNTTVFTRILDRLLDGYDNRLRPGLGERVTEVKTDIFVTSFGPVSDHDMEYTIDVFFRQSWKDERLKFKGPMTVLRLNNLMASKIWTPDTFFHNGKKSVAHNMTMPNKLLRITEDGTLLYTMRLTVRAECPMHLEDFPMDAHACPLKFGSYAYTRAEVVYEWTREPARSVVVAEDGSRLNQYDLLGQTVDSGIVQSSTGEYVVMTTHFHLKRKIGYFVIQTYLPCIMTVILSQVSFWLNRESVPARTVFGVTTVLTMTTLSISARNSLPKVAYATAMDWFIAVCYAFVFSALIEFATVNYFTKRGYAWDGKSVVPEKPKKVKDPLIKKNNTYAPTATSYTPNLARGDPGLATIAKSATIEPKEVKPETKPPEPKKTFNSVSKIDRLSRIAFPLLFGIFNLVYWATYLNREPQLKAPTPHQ
T9 sequence (P63138 26-474): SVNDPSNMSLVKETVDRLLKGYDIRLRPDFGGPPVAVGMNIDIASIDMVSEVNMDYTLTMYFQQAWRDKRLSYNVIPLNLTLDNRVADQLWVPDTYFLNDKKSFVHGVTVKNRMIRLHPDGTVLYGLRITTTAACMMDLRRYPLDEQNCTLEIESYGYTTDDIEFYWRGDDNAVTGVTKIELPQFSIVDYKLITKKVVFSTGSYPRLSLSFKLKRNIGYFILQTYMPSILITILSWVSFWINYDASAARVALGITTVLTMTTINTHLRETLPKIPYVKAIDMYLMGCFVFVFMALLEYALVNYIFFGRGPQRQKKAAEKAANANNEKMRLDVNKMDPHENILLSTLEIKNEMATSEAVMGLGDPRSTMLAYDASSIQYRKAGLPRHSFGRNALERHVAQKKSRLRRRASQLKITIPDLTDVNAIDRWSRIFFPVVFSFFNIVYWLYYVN
T9 sequence (P18508 39-466 R235E): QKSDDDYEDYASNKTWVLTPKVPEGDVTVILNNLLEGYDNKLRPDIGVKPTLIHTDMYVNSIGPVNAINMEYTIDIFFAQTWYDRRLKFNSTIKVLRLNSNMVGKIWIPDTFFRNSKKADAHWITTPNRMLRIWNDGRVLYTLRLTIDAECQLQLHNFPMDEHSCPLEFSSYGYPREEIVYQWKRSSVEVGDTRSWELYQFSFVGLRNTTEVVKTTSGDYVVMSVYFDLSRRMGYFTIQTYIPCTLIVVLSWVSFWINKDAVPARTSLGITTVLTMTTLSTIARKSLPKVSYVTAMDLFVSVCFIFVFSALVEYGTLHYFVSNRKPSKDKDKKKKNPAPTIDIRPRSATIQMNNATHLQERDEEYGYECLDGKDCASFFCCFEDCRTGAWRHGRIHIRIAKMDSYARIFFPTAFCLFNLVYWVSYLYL
T3 sequence (P62813 28-455 K131W): as the sequence (P62813 28-455) above, with K104W counted along it
T3 sequence (P63138 26-474): as the sequence (P63138 26-474) above
T3 sequence (P18508 39-466 partner): as the sequence (P18508 39-466 R235E) above, with E197R counted along it
T14 sequence (P62813 28-455): as the sequence (P62813 28-455) above
T14 sequence (P63138 26-474 E206G): as the sequence (P63138 26-474) above, with E181G counted along it
T6 sequence (P62813 28-455): as the sequence (P62813 28-455) above
T6 sequence (P63138 26-474 E206D): as the sequence (P63138 26-474) above, with E181D counted along it
T6 sequence (P18508 39-466 partner): as the sequence (P18508 39-466 R235E) above, with E197R counted along it
T8 sequence (P62813 28-455): as the sequence (P62813 28-455) above
T8 sequence (P63138 26-474, stated change not applied): as the sequence (P63138 26-474) above
T8 sequence (P18508 39-466 E206K): as the sequence (P18508 39-466 R235E) above, with E168K, E197R counted along it
T7 sequence (P62813 28-455): as the sequence (P62813 28-455) above
T7 sequence (P63138 26-474 E206W): as the sequence (P63138 26-474) above, with E181W counted along it
T7 sequence (P18508 39-466 partner): as the sequence (P18508 39-466 R235E) above, with E197R counted along it
T12 sequence (P62813 28-455 K131D): as the sequence (P62813 28-455) above, with K104D counted along it
T12 sequence (P63138 26-474): as the sequence (P63138 26-474) above
T5 sequence (P62813 28-455 K182W): as the sequence (P62813 28-455) above, with K155W counted along it
T5 sequence (P63138 26-474): as the sequence (P63138 26-474) above
T5 sequence (P18508 39-466 partner): as the sequence (P18508 39-466 R235E) above, with E197R counted along it
T11 sequence (P62813 28-455 E164G): as the sequence (P62813 28-455) above, with E137G counted along it
T11 sequence (P63138 26-474): as the sequence (P63138 26-474) above
T13 sequence (P62813 28-455 K182D): as the sequence (P62813 28-455) above, with K155D counted along it
T13 sequence (P63138 26-474): as the sequence (P63138 26-474) above
T4 sequence (P62813 28-455 K182R): as the sequence (P62813 28-455) above, with K155R counted along it
T4 sequence (P63138 26-474): as the sequence (P63138 26-474) above
T4 sequence (P18508 39-466 partner): as the sequence (P18508 39-466 R235E) above, with E197R counted along it
T2 sequence (P62813 28-455 E164W): as the sequence (P62813 28-455) above, with E137W counted along it
T2 sequence (P63138 26-474): as the sequence (P63138 26-474) above
T2 sequence (P18508 39-466 partner): as the sequence (P18508 39-466 R235E) above, with E197R counted along it
T1 sequence (P62813 28-455 E164D): as the sequence (P62813 28-455) above, with E137D counted along it
T1 sequence (P63138 26-474): as the sequence (P63138 26-474) above
T1 sequence (P18508 39-466 partner): as the sequence (P18508 39-466 R235E) above, with E197R counted along it
T10 sequence (P23576 29-451): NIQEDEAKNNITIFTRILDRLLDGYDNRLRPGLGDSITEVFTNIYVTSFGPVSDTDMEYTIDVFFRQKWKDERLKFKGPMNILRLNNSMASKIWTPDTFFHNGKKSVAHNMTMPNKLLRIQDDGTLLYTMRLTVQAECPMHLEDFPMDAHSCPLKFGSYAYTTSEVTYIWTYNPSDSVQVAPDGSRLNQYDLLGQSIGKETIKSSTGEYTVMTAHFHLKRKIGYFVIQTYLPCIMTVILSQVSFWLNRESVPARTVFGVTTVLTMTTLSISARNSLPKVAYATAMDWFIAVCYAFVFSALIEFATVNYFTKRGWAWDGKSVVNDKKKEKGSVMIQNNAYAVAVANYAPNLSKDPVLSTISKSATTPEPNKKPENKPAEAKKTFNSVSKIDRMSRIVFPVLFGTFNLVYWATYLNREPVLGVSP
T10 sequence (P63138 26-474): as the sequence (P63138 26-474) above
T10 sequence (P18508 39-466 partner): as the sequence (P18508 39-466 R235E) above, with E197R counted along it

Work on `N[C@@H](CCC(=O)O)C(=O)O` [glutamate, Glutamate] yielded an activity at 100 µM ([1]; Glu 100 μM) of 106 ± 18.3%, an activity at 1000 µM ([1]; Glu 1 mM) of 91.5 ± 15.4% and an activity at 100 µM ([2]; Glu 100 μM) of 14.7 ± 6.3%. The activity at 1000 µM ([2]; Glu 1 mM) was 21.1 ± 4.4%, the activity at 100 µM ([3]; Glu 100 μM) was 17.8 ± 15.3% and the activity at 1000 µM ([3]; Glu 1 mM) was 50.8 ± 17.2%. For the same compound, the activity at 100 µM ([4]; Glu 100 μM) was 88.4 ± 22.5%, the activity at 1000 µM ([4]; Glu 1 mM) was 106 ± 20.4% and the activity at 100 µM ([5]; Glu 100 μM) was 4 ± 4.7%. For the same compound, the activity at 1000 µM ([5]; Glu 1 mM) was 29.9 ± 8.8%, the activity at 100 µM ([6]; Glu 100 μM) was 155 ± 39.5% and the activity at 1000 µM ([6]; Glu 1 mM) was 102 ± 24.5%. The activity at 100 µM ([7]; Glu 100 μM) was 5.4 ± 4.9%, the activity at 1000 µM ([7]; Glu 1 mM) was 7.6 ± 4.3% and the “Glu-induced potentiation, % of wild-type α1β2γ2” value ([8]; Glu 100 μM) was 169.4 ± 32.5%. For the same compound, the “Glu-induced potentiation, % of wild-type α1β2γ2” value ([8]; Glu 1 mM) was 225.7 ± 51.9%, the “Glu-induced potentiation, % of wild-type α1β2” value ([9]; Glu 100 μM) was 92.7 ± 22.0% and the “Glu-induced potentiation, % of wild-type α1β2γ2” value ([9]; Glu 100 μM) was 204.9 ± 48.7%. The “Glu-induced potentiation, % of wild-type α1β2” value ([9]; Glu 1 mM) was 82.4 ± 16.9%, the “Glu-induced potentiation, % of wild-type α1β2γ2” value ([9]; Glu 1 mM) was 190.9 ± 39.2% and the “potentiation of GABA currents by glutamate” value [10] was “capable of potentiating GABA currents”. The activity at 100 µM ([11]; Glu 100 μM) was 109 ± 30.2%, the activity at 1000 µM ([11]; Glu 1 mM) was 88.4 ± 5.9% and the activity at 100 µM ([12]; Glu 100 μM) was 48.8 ± 9.5%. It also gave an activity at 1000 µM ([12]; Glu 1 mM) of 94.7 ± 20.7%, an activity at 100 µM ([13]; Glu 100 μM) of 76.3 ± 10.5% and an activity at 1000 µM ([13]; Glu 1 mM) of 90.1 ± 11.3%. It also gave an activity at 100 µM ([14]; Glu 100 μM) of 51.2 ± 9.5% and an activity at 1000 µM ([14]; Glu 1 mM) of 50.6 ± 8.4%.
